In patent US20210102200A1, “SMALL MOLECULE TARGETED RECRUITMENT OF A NUCLEASE TO RNA” (The Scripps Research Institute, priority 2018, published 2021):

Assays:
[1] = test system: MDA-MB-231 cells; assay: Caspase 3/7 activity in MDA-MB-231 cells; format: cell-based
Procedure: Approximately 5,000 MDA-MB-231 cells were plated into white, cell-culture treated, 96-well plates (Corning). At ˜60% confluency, cells were treated with dilutions of LNA-210, Scr-LNA, TGP-210, or TGP-210-RL and then placed under hypoxic or normoxic conditions. After 48 h, caspase 3/7 activity was measured using a Caspase-Glo 3/7 kit (Promega) according to the manufacturer's protocol. Alternatively, MDA-MB-231 cells were transfected with a plasmid overexpressing pre-miR-210 (Genecopoeia; HmiR0167-MR04) using Lipofectamine 2000 (Invitrogen). After 5 h of transfection, cells were plated into white, cell-culture treated 96-well plates (Corning) and then treated as described above. Fold change in Caspase activity was calculated by normalizing treated samples to the untreated samples after subtracting background sample values.

[2] = molecular target: pre-miR-210 mimic; assay: Microscale thermophoresis binding, miR-210 Hairpin RNA; conditions: MST
Procedure: (§1) MST fluorescent measurements were performed on a Monolith NT.115 system (NanoTemper Technologies) using the fluorescence of a 5′-Cy5 labeled miR-210 Hairpin RNA (5′—Cy5 […]) (SEQ ID NO: 11), a 5′-Cy5 miR-210 Mutant RNA (5′—Cy5 […]) (SEQ ID NO: 12), or a 5′ Cy5 DNA Hairpin (5′—Cy5 […]) (SEQ ID NO: 13) which were purchased from IDT with RNase-free HPLC purification and used without further purification. The RNA (5 nM) was prepared in 1×MST Buffer (8 mM Na2HPO4, 190 mM NaCl, 1 mM EDTA, and 0.05% (v/v) Tween-20) and folded by heating at 60° C. for 5 min, and slowly cooling to room temperature. Compounds (TGP-210 or TGP-210-RL) were diluted in 1×MST Buffer and then were added to a final concentration of 20 μM, followed by 1:2 dilutions in 1×MST Buffer containing 5 nM RNA. Alternatively, RNase L in 1×MST Buffer was added to a final concentration of 50 nM in addition to compound and RNA. […] Fluorescence measurements (Ex: 605-645 nm, Em: 680-685 nm) were performed at 20% LED and 80% MST power, with a Laser-On time of 30 s and Laser-Off time of 5 s. The data were analyzed by thermophoresis analysis and fitted by the quadratic binding equation in MST analysis software (NanoTemper Technologies). Dissociation constants were then determined by curve fitting using a single-site model.

[3] = test system: DNA; assay: Microscale thermophoresis binding, DNA Hairpin
Procedure: as §1

[4] = molecular target: T1, RNase L (Homo sapiens, UniProt Q05823); assay: In vitro RNase L oligomerization, TGP-210-RL study; format: biochemical; conditions: in vitro cross-linking
T1 construct: GST; made in house
T1 sequence (Q05823 1-741): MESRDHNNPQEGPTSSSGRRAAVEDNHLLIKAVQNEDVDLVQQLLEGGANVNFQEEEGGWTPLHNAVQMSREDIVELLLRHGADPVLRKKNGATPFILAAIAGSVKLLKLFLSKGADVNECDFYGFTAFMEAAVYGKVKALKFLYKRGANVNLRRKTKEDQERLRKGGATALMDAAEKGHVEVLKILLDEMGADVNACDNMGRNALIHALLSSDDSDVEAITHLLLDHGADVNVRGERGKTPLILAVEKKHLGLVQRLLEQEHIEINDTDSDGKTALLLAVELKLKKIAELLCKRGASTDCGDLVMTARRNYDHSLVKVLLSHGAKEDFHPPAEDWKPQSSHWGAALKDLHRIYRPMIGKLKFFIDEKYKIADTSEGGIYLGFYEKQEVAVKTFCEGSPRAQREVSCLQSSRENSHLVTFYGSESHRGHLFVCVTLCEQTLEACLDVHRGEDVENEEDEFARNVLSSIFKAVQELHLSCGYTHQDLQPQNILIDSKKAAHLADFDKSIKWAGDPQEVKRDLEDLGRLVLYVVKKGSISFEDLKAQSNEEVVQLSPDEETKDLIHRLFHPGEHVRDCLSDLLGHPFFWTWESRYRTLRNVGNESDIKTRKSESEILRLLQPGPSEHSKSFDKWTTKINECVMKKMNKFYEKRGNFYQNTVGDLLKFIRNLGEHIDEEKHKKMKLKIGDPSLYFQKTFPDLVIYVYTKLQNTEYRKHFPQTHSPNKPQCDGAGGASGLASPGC
Procedure: An aliquot of RNase L (3 μM) in 1×RNase L Buffer was supplemented with 10 mM MgCl2, fresh 7 mM β-mercaptoethanol, and 50 μM of ATP. Dilutions of 2′-5′ A4, TGP-210, or TGP-210-RL were prepared in 1×RNase L Buffer supplemented with 10 mM MgCl2, fresh 7 mM β-mercaptoethanol, and 50 μM of ATP and added to the solution of RNase L in a total volume of 17.4 μL. The RNase L/compound solutions were incubated at room temperature for 5 min and then 1 μL of 44 mM dimethyl suberimidate (Thomas Scientific) in 0.4 M triethanolamine hydrochloride, pH 8.5, was added. After incubating at room temperature for 2 h, 3.6 μL of 6×Laemmli buffer (375 mM Tris-HCl, pH 6.8, 0.03% bromophenol blue, 0.6% β-mercaptoethanol, 12% SDS, 60% glycerol) was added. After heat denaturing the samples at 95° C. for 5 min, the samples were diluted 1:90 in 1×Laemmli buffer and then resolved by SDS-PAGE. After transferring to a PVDF membrane, the membrane was blocked in 1×TBST [1×TBS with 0.1% Tween-20 (v/v)] containing 5% nonfat milk for 1 h. […] After washing the membrane five times for 5 min each with 1×TBST, protein levels were quantified by chemiluminescence with SuperSignal West Pico Chemiluminescent Substrate (Pierce Biotechnology) per the manufacturer's protocol. RNase L bands associated with monomeric or oligomeric signals were quantified using ImageJ software (National Institutes of Health).

Kd [2]: 160 nM
Selectivity window between DNA and the Dicer site in pre-miR-210 [3]: 5 fold
Kd ([3]; MST): 620 nM
Oligomerization of RNase L [4]: not
Substance: Targapremir-210 [TGP-210]
Apoptotic stimulation (caspase activity) ([1]; hypoxic MDA-MB-231 cells, 48 h, TGP-210-RL at 500 nM): similar
Apoptosis upon miR-210 overexpression ([1]; miR-210 overexpressed background): no longer stimulated apoptosis
